In the test the target is T1, Bromodomain-containing protein 4 [75-147] (Homo sapiens, UniProt O60885).
T1 construct: 75-147
The experiment in a line: In Vitro Enzymatic Activity Assay. Here is the method:
In the present application, the IC50 value of the compound of formula (I) in inhibiting BRD4 (BD1) enzyme binding reaction were determined by homogeneous time resolved fluorescence (HTRF). The compound of formula (I) was serially diluted 5-fold with 100% DMSO starting from 0.2 mM (7 concentrations in total), and then 2 μL of the compound of formula (I) at each concentration was added to 48 μL of a reaction buffer (20 mM HEPES pH 7.5, 150 mM NaCl, 5 mM DTT, 0.005 % Tween 20, and 100 μg/mL BSA) for dilution, and mixed well. 2.5 μL of the resulting mixture was added to a 384-well plate (OptiPlate-384, purchased from PerkinElmer), then 5 μL of GST-BRD4 (BD1, 44-168 aa) (final concentration: 1 nM) was added, and the resulting mixture was centrifuged, and fully mixed. 2.5 μL of a short peptide Biotin-AHA-SGRGK(Ac)GGK(Ac)GLGK(Ac)GGAK(Ac) RHRKV (final concentration: 100 nM) was then added to initiate the reaction (total reaction volume: 10 μL). […] After being incubated in the incubator for another 1 hour, the fluorescence values (excited at 320 nm, emitted light at 665 nm and 620 nm being detected, and the ratio of the two being the enzyme binding signal) were read on Envision (purchased from PerkinElmer).

We go through one compound from BindingDB's records for patent US20240101551 (Chia Tai Tianqing Pharmaceutical Group, 2024).

The structures appear in SMILES notation.

For orientation: IC50 means the concentration needed to halve the response being measured. A low value points to greater potency. Consider `Cn1cc(-c2nc(CS(C)(=O)=O)ccc2Oc2ccc(F)cc2F)c2cc[nH]c2c1=O` [US20240101551, Compound of Formula I], for which the IC50 amounted to 640 pM.
